These results are taken from patent publication US20240018145A1, “[…]-DEPENDENT EN[…] TREATING OR […]” (priority 2020, published 2024).

The subject of this assay is FLU A (PR/8/34). As to the kind of experiment: Flu A Neuraminidase Antiviral Assay. It counts as cell-based.
For orientation: EC50 means the concentration giving half of the maximal effect. Low readings indicate a more potent agent, high ones a less potent agent. Consider `Cc1ccc(C2(C)CCCC3N(CC(F)(F)F)C(=O)c4c(O)c(=O)ccn4N32)nc1` (single isomer, unassigned) [Compound 49B, 7-hydroxy-1-methyl-1-(5-methylpyridin-2-yl)-5-(2,2,2-trifluoroethyl)-1,2,3,4,4a,5-hexahydrodipyrido[1,2-b:2′,1′-f][1,2,4]triazine-6,8-dione], for which the midpoint of the response, the EC50, lay at 26.5 nM.
Compound `COc1c2n(ccc1=O)N1C(c3ccccc3)C(SC(C)C)CCC1N(C)C2=O` (centres unmarked) [Compound 146A, 2-(isopropylthio)-7-methoxy-5-methyl-1-phenyl-1,2,3,4,4a,5-hexahydrodipyrido[1,2-b:2′,1′-f][1,2,4]triazine-6,8-dione] returned an EC50 of 18.7 nM.
Turning to `CCN1C(=O)c2c(O)c(=O)cc(COC)n2N2C(c3ccccc3)C(CC(F)(F)F)CCC12` (centres unmarked) [Compound 131D, 5-ethyl-7-hydroxy-10-(methoxymethyl)-1-phenyl-2-(2,2,2-trifluoroethyl)-1,2,3,4,4a,5-hexahydrodipyrido[1,2-b:2′,1′-f][1,2,4]triazine-6,8-dione], the concentration giving a half-maximal response (EC50) is greater than 810 nM.
For `CN1C(=O)c2c(O)c(=O)ccn2N2C(c3ccccc3)C(CC(F)(F)F)CCC12C` (single isomer, unassigned) [Compound 111B, 7-hydroxy-4a,5-dimethyl-1-phenyl-2-(2,2,2-trifluoroethyl)-1,2,3,4,4a,5-hexahydrodipyrido[1,2-b:2′,1′-f][1,2,4]triazine-6,8-dione], the EC50 was determined as 3.3 nM.
The compound `CCOC1CCC2N(C)C(=O)c3c(O)c(=O)ccn3N2C1c1ccccc1` (centres unmarked) [Compound 152B, 2-ethoxy-7-hydroxy-5-methyl-1-phenyl-1,2,3,4,4a,5-hexahydrodipyrido[1,2-b:2′,1′-f][1,2,4]triazine-6,8-dione] showed a concentration giving a half-maximal response (EC50) of 36.1 nM.
Under `CCN1C(=O)c2c(O)c(=O)ccn2N2C1CCC1(CCC(F)(F)CC1)C2c1ccccc1` (single isomer, unassigned) [Compound 76B] stands 2 nM.
For the compound `CN1C(=O)c2c(O)c(=O)ccn2N2C1CCC1(CCC(C(F)(F)F)CC1)C2c1ccccc1` (single isomer, unassigned) [Compound 73D, 7′-hydroxy-5′-methyl-1′-phenyl-4-(trifluoromethyl)-3′,4′,4a′,5′-tetrahydro-1′H-spiro[cyclohexane-1,2′-dipyrido[1,2-b:2′,1′-f][1,2,4]triazine]-6′,8′-dione], the EC50 came to 6.6 nM.
The figure for `CN1C(=O)c2c(O)c(=O)ccn2N2C(c3cc(F)ccc3C(F)(F)F)CCCC12` (single isomer, unassigned) [Compound 13B, 1-(5-fluoro-2-(trifluoromethyl)phenyl)-7-hydroxy-5-methyl-1,2,3,4,4a,5-hexahydro-dipyrido[1,2-b:2′,1′-f][1,2,4]triazine-6,8-dione] is 783 nM; for `CCN1C(=O)c2c(O)c(=O)ccn2N2C(c3ccccc3)C(c3ccc(F)c(F)c3)CCC12` (single isomer, unassigned) [Compound 94A, 2-(3,4-difluorophenyl)-5-ethyl-7-hydroxy-1-phenyl-1,2,3,4,4a,5-hexahydrodipyrido[1,2-b:2′,1′-f][1,2,4]triazine-6,8-dione] it is 397 nM.
Compound `CN1C(=O)c2c(O)c(=O)ccn2N2C1CCC2(C)c1ccccc1Cl` (single isomer, unassigned) [Compound 63A, 1-(2-chlorophenyl)-6-hydroxy-1,4-dimethyl-2,3,3a,4-tetrahydro-1H-pyrido[2,1-f]pyrrolo[1,2-b][1,2,4]triazine-5,7-dione] showed a concentration for a half-maximal effect (EC50) greater than 8100 nM.
`CC1(c2ccccc2)CCCC2N(CC3COC3)C(=O)c3c(O)c(=O)ccn3N21` (single isomer, unassigned) [Compound 40A, 7-hydroxy-1-methyl-5-(oxetan-3-ylmethyl)-1-phenyl-1,2,3,4,4a,5-hexahydrodipyrido[1,2-b:2′,1′-f][1,2,4]triazine-6,8-dione]: the EC50 amounted to 14.4 nM.
